PubChem BioAssay (NCI)
Several values for one entry are separate records, joined by “and”; a condition that tells them apart may be missing. Identical values can stand only once.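 How tested: cells in 96-well plates exposed to compound for 48 hours at five concentrations. At the GI50, growth is halved. At the TGI there is no net growth.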

Key:
Experiment in all cases: growth of human tumour cells (NCI), 48 h
[1] = tested on: PC-3 prostate
[2] = tested on: NCI/ADR-RES ovarian
[3] = tested on: MDA-MB-231 breast
[4] = tested on: MCF7 breast

Row | Compound | GI50 [1] | TGI [1] | GI50 [2] | TGI [2] | GI50 [3] | TGI [3] | GI50 [4] | TGI [4]
1 | COc1cc(-c2nn(-c3cccc(NC(=O)c4cccc(C(F)(F)F)c4)c3)cc2-c2ccncc2)ccc1Cl | 1.23 µM | > 50 µM | 1.09 µM | 3.17 µM | 1.24 µM | 9.96 µM | 1.43 µM | > 50 µM
2 | COc1cc2c(cc1OCCCN1CCN(CCCn3c4ccccc4c4ccccc43)CC1)N=C[C@@H]1CCCN1C2=O | 0.0585 µM | 0.523 µM | 1.37 µM | 4.93 µM | 0.217 µM | 1.02 µM | 0.0285 µM | 0.461 µM
3 | O=C(Nc1cccc(C(F)(F)F)c1)Nc1ccc(OCc2nnc(-c3ccccc3)o2)c(F)c1 | 2.01 µM | 13.7 µM | 4.61 µM | 26.9 µM | 3.3 µM | 22.3 µM | 4.21 µM | 24.4 µM
4 | CC(C)C12CCC3(CCC4C(C)(C(=O)O)CCCC4(C)C3C1)C(CN)C2 (configuration not stated) | – | > 100 µM | – | > 100 µM | – | > 100 µM | – | > 100 µM
5 | COc1cc(/C=C/C(=O)c2c(-c3ccc(Cl)cc3)nc3sc(C)nn23)cc(OC)c1OC | – | – | 7.85 µM | > 100 µM | 14.3 µM | > 100 µM | 8.81 µM | > 100 µM
6 | COC(=O)C(NC(=O)c1ccccc1)c1ccc(OC)c(I)c1 (configuration not stated) | 40.1 µM | > 100 µM | 36.4 µM | > 100 µM | 27.2 µM | > 100 µM | 39.5 µM | > 100 µM
7 | O=C(/C=C/N1CCN(c2cccc(Cl)c2)CC1)c1ccc(Cl)cc1 | 25.3 µM | > 100 µM | 33.2 µM | > 100 µM | 30 µM | > 100 µM | 29.7 µM | > 100 µM
8 | COc1cc(COC(=O)NC(Cc2cccs2)C(=O)O)c([N+](=O)[O-])cc1OC (configuration not stated) | – | > 100 µM | – | > 100 µM | – | – | – | > 100 µM
9 | CC(C)c1nc(Cl)c(Cl)c(Cl)n1 | – | 17.7 µM | – | 55.8 µM | – | 23.2 µM | – | 14.2 µM
10 | OCCn1c(-c2ccncc2)c(-c2ccc(F)cc2)c2ncccc21 | > 25 µM | > 25 µM | > 25 µM | > 25 µM | > 25 µM | > 25 µM | > 25 µM | > 25 µM
11 | CC(=O)Nc1ccc(C(=O)COc2cccc(/C=C3\CCc4ccccc4C3=O)c2)cc1 | 10.1 µM | 47.2 µM | 10.5 µM | 65.9 µM | 18.7 µM | 85.9 µM | 2.9 µM | 19 µM
12 | CS(=O)(=O)Nc1ccc(Nc2c3ccccc3nc3cc(Cl)ccc23)cc1 | 2.47 µM | 19.4 µM | 3.93 µM | 37.5 µM | 4.56 µM | 19.8 µM | 0.389 µM | 13.4 µM
13 | C=CCCC1(CCP(=O)(c2ccccc2)c2ccccc2)OCCO1 | – | > 100 µM | – | > 100 µM | – | > 100 µM | – | > 100 µM
14 | Nc1ccc(N)c2c1C(=O)c1cccc([N+](=O)[O-])c1C2=O | 15.6 µM | > 100 µM | 4.52 µM | > 100 µM | 27 µM | > 100 µM | 0.32 µM | 18 µM
15 | Cc1cc(C2(c3cc(C)c(O)c4ncccc34)OC(=O)c3ccccc32)c2cccnc2c1O | 0.0957 µM | > 100 µM | 0.0138 µM | 17.1 µM | 0.0215 µM | 22.7 µM | – | > 100 µM
16 | CCNc1nc(-c2ccc(Cl)c(OC)c2)c(-c2ccnc(NCCNS(=O)(=O)c3ccc(Cl)cc3)n2)s1 | 2.99 µM | > 100 µM | 3.51 µM | > 100 µM | 2.15 µM | 5.03 µM | 3.03 µM | > 100 µM
17 | CCC(=C(c1ccc(OCCN(CC)CC)cc1)c1ccc(OCCN(CC)CC)cc1)c1ccc(Cl)cc1 | 0.581 µM | 1.24 µM | 0.625 µM | 1.21 µM | 0.573 µM | 1.09 µM | 0.347 µM | 0.861 µM
18 | COc1ccc(Cl)cc1Nc1nc(C(F)(F)F)ccc1C(=O)N/N=C/c1ccc(Cl)cc1 | > 100 µM | > 100 µM | 6.35 µM | > 100 µM | 5.44 µM | > 100 µM | 1.05 µM | > 100 µM
19 | Cn1c(=O)c(Oc2ccc(F)cc2F)cc2cnc(NC3CCC(O)CC3)nc21 (configuration not stated) | > 25 µM | > 25 µM | > 25 µM | > 25 µM | > 25 µM | > 25 µM | > 25 µM | > 25 µM
20 | N#Cc1c(N/N=C/c2c(Cl)cccc2Cl)nc(N)nc1N1CCCC1 | 2.89 µM | 40 µM | 1.5 µM | 6.98 µM | 3.25 µM | 42.2 µM | 5.8 µM | > 100 µM

Row | Compound | GI50 [1] | TGI [1] | GI50 [2] | TGI [2] | GI50 [3] | TGI [3] | GI50 [4] | TGI [4]
21 | O=C(NCc1cccnc1)c1ccc([N+](=O)[O-])o1 | 2.52 µM | > 19.1 µM | 1.66 µM | 23.9 µM | 16.1 µM | > 32.5 µM | 0.973 µM | 5.21 µM
22 | Oc1ccc(/C=N/Nc2nnc(N/N=C/c3ccc(O)cc3O)c3ccccc23)c(O)c1 | – | 8.82 µM | – | 12.5 µM | 1.35 µM | > 46.2 µM | 0.576 µM | 0.848 µM and 2.29 µM
23 | N#Cc1c(N)nc(N2CCOCC2)c(C#N)c1-c1ccc(Cl)cc1Cl | 10.9 µM | 35.2 µM | 19.9 µM | 48.1 µM | 15.9 µM | 43.7 µM | 8.8 µM | 36.2 µM
24 | Oc1ccc(CCNc2nc3ccccc3c3[nH]c4ccccc4c23)cc1 | 1.63 µM | 3.31 µM | 2.68 µM | 9.28 µM | 1.36 µM | 2.97 µM | 1.37 µM | 3.16 µM
25 | COc1cc2nccc(Oc3ccc(NC(=O)C4(C(=O)Nc5ccc(F)cc5)CC4)cc3)c2cc1OC | > 10 µM and 3.42 µM | > 100 µM | > 10 µM and 3.43 µM | > 100 µM | > 10 µM and 3.1 µM | > 40.6 µM | > 10 µM and 4.06 µM | > 54.2 µM
26 | O=C1COc2c(CCNCCN(C(=O)CCNCCc3ccc(Cl)c(Cl)c3)C3CCCCC3)ccc(O)c2N1 | 16 µM | 30.3 µM | > 100 µM | > 100 µM | 10.5 µM | 25.6 µM | 11.9 µM | 27.8 µM
27 | CC(=O)Nc1ccc(C(=O)NN2C(=O)CSC2c2ccccc2)cc1 (configuration not stated) | – | – | – | > 100 µM | – | > 100 µM | – | > 100 µM
28 | CN(C)C(=O)c1cc2cnc(Nc3ccc(N4CCNCC4)cn3)nc2n1C1CCCC1 | 1.01 µM | 62.9 µM | 37.8 µM | > 100 µM | 8.48 µM | 74.5 µM | 0.592 µM | 37.2 µM
29 | O=C1OC(c2ccccc2)=N/C1=C\c1ccc(N(CCCl)CCCl)cc1 | – | > 100 µM | – | > 100 µM | – | > 100 µM | – | > 100 µM
30 | O=C(COC(=O)[C@H](C[Se][Se]C[C@H](NC(=O)c1ccc(Br)cc1F)C(=O)OCC(=O)c1ccc(F)cc1)NC(=O)c1ccc(Br)cc1F)c1ccc(F)cc1 | 0.375 µM | 1.38 µM | 0.821 µM | 2.39 µM | 1.65 µM | 4.03 µM | 0.984 µM | 3.06 µM
31 | CCn1c(SC)nnc1-c1cc2c([nH]c3ccccc32)c(-c2cccc(O)c2)n1 | 2.83 µM | > 100 µM | 3.71 µM | 36.1 µM | 2.43 µM | 15.9 µM | 0.995 µM | 25.2 µM
32 | COc1cccc2c(Nc3ccc(C(=O)NCCN4CCNCC4)cc3)cc(-c3ccccc3)nc12 | 25.8 µM | > 100 µM | > 100 µM | > 100 µM | 19.9 µM | > 100 µM | 23.7 µM | > 100 µM
33 | CCc1c[nH]c2ncnc(N3CC[C@](N)(CNC(=O)c4ccc(F)cc4F)C3)c12 | 1 µM | > 91.7 µM | > 61.2 µM | > 100 µM | 48.5 µM | > 100 µM | 0.716 µM | > 100 µM
34 | CC(=O)OC1CCC2(C)C(=CCC3C4CC(CN5CC5)C(=O)C4(C)CCC32)C1 (configuration not stated) | 12.7 µM | 26.8 µM | 16 µM | 41.5 µM | 11.8 µM | 25 µM | 0.67 µM | 2.68 µM
35 | Brc1ccc2c(c1)-c1ccccc1C1=NCCN12 | 0.763 µM | 11 µM | 0.897 µM | 26.7 µM | 1.73 µM | 4.29 µM | 0.552 µM | 10.9 µM
36 | Cn1c(=O)c(-c2c(Cl)cccc2Cl)cc2cnc(Nc3ccc(N4CCOCC4)cc3)nc21 | 0.474 µM | > 100 µM | 0.0158 µM | 0.09 µM | < 0.0169 µM | – | 1.49 µM | > 100 µM
37 | COc1cc([C@H]2c3cc(O)c(OC)cc3C[C@]3(O)[C@@H]2CO[C@@H]3O)ccc1O | – | > 100 µM | – | > 100 µM | – | > 100 µM | – | > 100 µM
38 | Cc1cccc2c1Oc1ncccc1C2NC(=O)CN(C)C (configuration not stated) | – | > 10 µM | – | > 10 µM | – | – | – | > 10 µM
39 | Cc1cc2c(SCc3ccccc3Cl)nc(N)nc2nc1C | – | > 100 µM | – | > 100 µM | – | > 100 µM | – | > 100 µM
